Data published in patent US20140155471A1, “TREATING NEUROLOGICAL DISEASE OR INJURY WITH A DYNAMIN-RELATED PROTEIN 1 (DRP1) ENCODING NUCLEIC ACID” (UNIVERSITY OF ROCHESTER, priority 2011, published 2014).

Columns and labels:
[1] = system: MPTP mouse model of PD; assay: MPTP mouse model, neurorescue (treatment 7 days after last MPTP injection); type: in vivo, C57BL/6 mice; settings: mdivi-1 i.p. twice daily for 3 days starting 7 days after last MPTP injection
Protocol: For all studies, 10-12 week old male C57BL/6 mice were randomly assigned to receive intraperitoneal injections of either MPTP (25 mg/kg, Sigma, St. Louis, Mo.) or saline once daily for 5 days. For the neuroprotection studies, mice received twice daily i.p. injections (20 mg/kg) with mdivi-1 beginning on the day of the first MPTP injection and continued until mice were sacrificed 7 days after last MPTP injection. For the neurorescue studies, mice received twice daily i.p. injections (20 mg/kg) with mdivi-1 beginning 7 days after the last MPTP injection and continued for a total of 3 days. To maximize the data yielded from each animal, mice were sacrificed by decapitation and the freshly removed brains were divided into 3 pieces for separate measures of nigrostriatal damage. […]
(§1) Brains from saline and MPTP treated mice were sectioned (30 μm) and processed for stereological cell counts using the optical fractionator method as described 35. Striatal optical densities of TH immunoreactivity were also quantified.
Stereotactic implantation of guide cannula was performed under ketamine/xylazine (65/6 mg/kg i.p.) anesthesia using the following striatal coordinates, relative to bregma: anterior-posterior +0.5 mm, lateral −2.0 mm, dorsal-ventral −1.5 mm (from surface of brain). […] Samples from the same animals were measured for the contents of mdivi-1, MPP+, DA, and its metabolites. […]

[2] = system: MPTP mouse model of PD; assay: MPTP mouse model, neuroprotection (active neurodegeneration); type: in vivo, C57BL/6 mice; settings: mdivi-1 delivered together with MPTP
Protocol: For all studies, 10-12 week old male C57BL/6 mice were randomly assigned to receive intraperitoneal injections of either MPTP (25 mg/kg, Sigma, St. Louis, Mo.) or saline once daily for 5 days. For the neuroprotection studies, mice received twice daily i.p. injections (20 mg/kg) with mdivi-1 beginning on the day of the first MPTP injection and continued until mice were sacrificed 7 days after last MPTP injection. For the neurorescue studies, mice received twice daily i.p. injections (20 mg/kg) with mdivi-1 beginning 7 days after the last MPTP injection and continued for a total of 3 days. […]
as §1
(§2) A 12-channel CoulArray® (ESA Inc., Chelmsford, Mass.) equipped with a highly sensitive amperometric microbore cell (model 5041, ESA Inc.) was used to analyze the content of DA and its metabolites with the cell potential set at +220 mV as described in Cui et al. For measurements of total striatal DA content, mice were sacrificed and their striata were dissected out and stored at −80° C. until analysis. […] Peaks were detected by an ESA 8 Channel CoulArray® system. […]

[3] = system: Pink1-/- mice; assay: Depolarization (KCl)-evoked striatal DA overflow by in vivo microdialysis in Pink1-/- and Pink1+/+ mice; settings: mdivi-1 i.p. twice daily for 3 days
Protocol: Stereotactic implantation of guide cannula was performed under ketamine/xylazine (65/6 mg/kg i.p.) anesthesia using the following striatal coordinates, relative to bregma: anterior-posterior +0.5 mm, lateral −2.0 mm, dorsal-ventral −1.5 mm (from surface of brain). Twenty-four hours after recovery from surgery, a microdialysis probe (2-mm membrane, Bioanalytical Systems, Inc., West Lafayette, Ind.) was inserted into the guide cannula and connected to a low torque-dual channel swivel (Instech Laboratories, Inc., Plymouth Meeting, Pa.) which was connected to a syringe pump perfusing with artificial cerebrospinal fluid (aCSF) at 2 μL/min for all studies except mdivi-1 pharmacokinetic studies where the flow rate was 1 μL/min. […] Samples from the same animals were measured for the contents of mdivi-1, MPP+, DA, and its metabolites.

[4] = In vivo microdialysis and HPLC of mdivi-1 in striatal dialysate (blood-brain barrier crossing); design: species or system mice
Protocol: Stereotactic implantation of guide cannula was performed under ketamine/xylazine (65/6 mg/kg i.p.) anesthesia using the following striatal coordinates, relative to bregma: anterior-posterior +0.5 mm, lateral −2.0 mm, dorsal-ventral −1.5 mm (from surface of brain). […] Samples from the same animals were measured for the contents of mdivi-1, MPP+, DA, and its metabolites. Levels of these molecules and the amount of KCl (delivered to the striatum) were calculated on the basis of the standard curves, probe efficiency (˜8%), flow rate, and duration of sample collection as described in Cui et al. “The organic cation transporter-3 is a pivotal modulator of neurodegeneration in the nigrostriatal dopaminergic pathway,” PNAS USA 106: 8043-8048 (2009).
as §2
The ability of Mitochondrial Division Inhibitor-1 (mdivi-1), a Drp1 inhibitor, to cross the blood-brain barrier was assessed. […]

[5] = biological target: T1, mouse dopamine transporter (Mus musculus, UniProt Q61327); assay: Transport studies in cells overexpressing dopamine transporter (MPP+ or DA uptake); type: cell-based; settings: stable cells overexpressing DAT; substrates MPP+ or DA; mdivi-1 1 or 10 μM
T1 construct: expressed in transfected cells; host or cells: EM4 cells / HEK 293 cells stably transfected with macrophage scavenger receptor
Protocol: EM4 cells and human embryonic kidney (HEK 293) cells stably transfected with macrophage scavenger to increase their adherence to tissue culture plastic, overexpressing mouse dopamine transporter or empty vector control were grown in 24-well plates. These cells were washed twice and then preincubated for 20 min at 37° C. in Krebs Ringer Hepes (KRH) buffer (125 mM NaCl, 25 mM HEPES, 5.6 mM glucose, 4.8 mM KCl, 1.2 mM KH2PO4, 1.2 mM CaCl2, 1.2 mM MgSO4, pH 7.4), in the presence or absence of mdivi-1 (1, or 10 μM) or GBR12909 (1 μM). This buffer was then replaced with KRH plus or minus MPP+ (200 μM) or dopamine (100 μM), in the presence or absence of mdivi-1 (1, or 10 μM) or GBR12909 (1 μM) for 30 min. To stop the reaction, cells were rinsed with ice-cold buffer and then immediately removed in 5% trichloroacetic acid, sonicated and centrifuged at 15,000 at 4° C. […]. Supernatant was collected for MPP+ and DA quantification using HPLC. Cell pellet was measured for protein concentration using the BCA assay.

T1 sequence (Q61327 whole entry): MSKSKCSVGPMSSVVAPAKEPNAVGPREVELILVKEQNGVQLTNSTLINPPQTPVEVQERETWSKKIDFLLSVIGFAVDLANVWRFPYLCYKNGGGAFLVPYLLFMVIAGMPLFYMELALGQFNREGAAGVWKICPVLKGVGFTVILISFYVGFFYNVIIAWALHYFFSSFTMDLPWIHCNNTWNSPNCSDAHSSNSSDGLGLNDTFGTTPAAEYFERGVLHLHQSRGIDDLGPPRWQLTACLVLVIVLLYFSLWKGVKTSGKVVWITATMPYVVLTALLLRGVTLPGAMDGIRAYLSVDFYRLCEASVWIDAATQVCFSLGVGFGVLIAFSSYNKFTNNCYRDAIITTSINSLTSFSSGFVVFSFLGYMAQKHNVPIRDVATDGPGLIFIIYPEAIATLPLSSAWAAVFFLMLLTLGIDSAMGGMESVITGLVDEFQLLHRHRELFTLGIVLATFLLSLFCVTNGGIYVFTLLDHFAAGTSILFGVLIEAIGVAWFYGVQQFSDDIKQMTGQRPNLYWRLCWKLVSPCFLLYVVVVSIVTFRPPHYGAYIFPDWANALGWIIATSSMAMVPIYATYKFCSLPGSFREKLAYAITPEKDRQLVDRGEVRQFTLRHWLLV

COc1cc(-n2c(S)nc3ccccc3c2=O)c(Cl)cc1Cl [mdivi-1, 3-(2,4-dichloro-5-methoxyphenyl)-2-sulfanyl-4(3H)-quinazolinone]
evoked DA overflow in MPTP-lesioned mice [1]: improved | regeneration of nigral DA neurons terminals or total DA content [1]: absence of promoting regeneration | MPTP induced-loss of dopaminergic cell body terminals and DA content [2]: significantly prevented | evoked DA overflow in Pink1-/- mice ([3]; 12 month old Pink1-/- mice, high-KCl aCSF): complete restoration | level of evoked DA release in Pink1+/+ mice ([3]; Pink1+/+ mice): did not alter | time of peak of mdivi-1 in striatal dialysate ([4]; after an i.p. injection): 3 h | mdivi-1 in the striatal dialysate (ability to cross the blood-brain barrier) ([4]; after i.p. injection, in vivo microdialysis, HPLC): detected | transport activity of DAT [5]: did not affect
